Tests used:
Format in all cases: in vivo
Alopecurus myosuroides = assay: greenhouse post-emergence treatment, ALOMY; settings: Alopecurus myosuroides, 480 h, 20 DAT, ALOMY
How it was run: (§1)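 Visual damage score 0–100 (0 = normal growth; 100 = no emergence/above-ground parts destroyed), read 2–4 wk post-treatment. Loamy sand, ~3.0% humus; seedlings grown in place or transplanted days before spraying; water as solvent; 10-25° C. or 20-35° C. per species. Combination expectations by Colby: E=X+Y−(X·Y/100).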

Papaver rhoeas = assay: greenhouse post-emergence treatment, PAPRH; settings: Papaver rhoeas, 480 h, 20 DAT, PAPRH
How it was run: (§2)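 Foliar application to greenhouse-grown plants 3–15 cm tall in humus-containing loamy sand; response assessed on a 0–100 scale after 2–4 weeks, with Colby's E=X+Y−(X·Y/100) as the additive expectation.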

Matricaria chamomilla = assay: greenhouse post-emergence treatment, MATCH; settings: Matricaria chamomilla, 480 h, 20 DAT, MATCH
How it was run: as §2

Setaria viridis = assay: greenhouse post-emergence treatment, SETVI; settings: Setaria viridis, 480 h, 20 DAT, SETVI
How it was run: as §1

Echinocloa crus-galli = assay: greenhouse post-emergence treatment, ECHCG; settings: ECHCG, 20 DAT
How it was run: as §2

Bromus sterilis = assay: greenhouse post-emergence treatment, BROST; settings: Bromus sterilis, 480 h, 20 DAT, BROST
How it was run: as §1

Brachiaria decumbens = assay: greenhouse post-emergence treatment, BRADC; settings: Urochloa decumbens, 480 h, 20 DAT, BRADC
How it was run: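 Visual herbicidal effect (0–100) recorded over a 2 to 4 week test period after foliar treatment at plant heights of 3 to 15 cm. Expected combination effects derived by the Colby formula from single-component effects X and Y.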

Avena fatua = assay: greenhouse post-emergence treatment, AVEFA; settings: Avena fatua, 480 h, AVEFA, 20 DAT
How it was run: as §1

Lolium multiflorum = assay: greenhouse post-emergence treatment, LOLMU; settings: Lolium multiflorum, 480 h, LOLMU, 20 DAT
How it was run: as §1

Polygonum convolvulus = assay: greenhouse post-emergence treatment, POLCO; settings: Fallopia convolvulus, 480 h, 20 DAT, POLCO
How it was run: as §2

[1] = 120 gai/ha (SL 480 g/l), Table X3, read-out: % activity, solo application
[2] = 240 gai/ha (SL 480 g/l), Table X3, read-out: % activity, solo application
[3] = 30 gai/ha (SL 480 g/l), Table X3, read-out: % activity, solo application
[4] = 60 gai/ha (SL 480 g/l), Table X3, read-out: % activity, solo application
[5] = solo pyridate (WP 45%) 900 gai/ha
[6] = solo pyridate (WP 45%) 112.5 gai/ha
[7] = solo pyridate (WP 45%) 225 gai/ha
[8] = solo pyridate (WP 45%) 450 gai/ha

Structure (SMILES): CC(C)N1C(=O)c2ccccc2NS1(=O)=O [bentazon]
- inhibition at 120 g/ha (Alopecurus myosuroides; [1]): 0%
- inhibition at 240 g/ha (Alopecurus myosuroides; [2]): 0%
- pest or weed control at 60 g/ha (Alopecurus myosuroides; bentazon solo 60 gai/ha): 0%
- pest or weed control at 240 g/ha (Alopecurus myosuroides; bentazon solo 240 gai/ha): 0%
- inhibition at 120 g/ha (Papaver rhoeas; [1]): 0%
- pest or weed control at 30 g/ha (Papaver rhoeas; bentazon solo 30 gai/ha): 0%
- pest or weed control at 60 g/ha (Papaver rhoeas; bentazon solo 60 gai/ha): 0%
- pest or weed control at 120 g/ha (Papaver rhoeas; bentazon solo 120 gai/ha): 0%
- inhibition at 30 g/ha (Matricaria chamomilla; [3]): 20%
- inhibition at 60 g/ha (Matricaria chamomilla; [4]): 30%
- pest or weed control at 30 g/ha (Matricaria chamomilla; bentazon solo 30 gai/ha): 0%
- pest or weed control at 60 g/ha (Matricaria chamomilla; bentazon solo 60 gai/ha): 0%
- pest or weed control at 120 g/ha (Matricaria chamomilla; bentazon solo 120 gai/ha): 0%
- inhibition at 60 g/ha (Setaria viridis; [4]): 0%
- inhibition at 240 g/ha (Setaria viridis; [2]): 30%
- % activity (Echinocloa crus-galli; bentazon solo 30 gai/ha): 0%
- % activity (Echinocloa crus-galli; bentazon solo 60 gai/ha): 0%
- % activity (Echinocloa crus-galli; bentazon solo 120 gai/ha): 0%
- % activity (Echinocloa crus-galli; bentazon solo 240 gai/ha): 20%
- inhibition at 60 g/ha (Echinocloa crus-galli; Echinochloa crus-galli, 480 h, 60 gai/ha (SL 480 g/l), Table X3, read-out: % activity, solo application): 0%
- inhibition at 120 g/ha (Echinocloa crus-galli; Echinochloa crus-galli, 480 h, 120 gai/ha (SL 480 g/l), Table X3, read-out: % activity, solo application): 0%
- inhibition at 240 g/ha (Echinocloa crus-galli; Echinochloa crus-galli, 480 h, 240 gai/ha (SL 480 g/l), Table X3, read-out: % activity, solo application): 20%
- inhibition at 60 g/ha (Bromus sterilis; [4]): 0%
- pest or weed control at 30 g/ha (Bromus sterilis; bentazon solo 30 gai/ha): 0%
- pest or weed control at 60 g/ha (Bromus sterilis; bentazon solo 60 gai/ha): 0%
- pest or weed control at 120 g/ha (Bromus sterilis; bentazon solo 120 gai/ha): 0%
- pest or weed control at 240 g/ha (Bromus sterilis; bentazon solo 240 gai/ha): 0%
- inhibition at 30 g/ha (Brachiaria decumbens; [3]): 0%
- inhibition at 60 g/ha (Brachiaria decumbens; [4]): 0%
- inhibition at 120 g/ha (Brachiaria decumbens; [1]): 0%
- pest or weed control at 30 g/ha (Brachiaria decumbens; bentazon solo 30 gai/ha): 0%
- pest or weed control at 60 g/ha (Brachiaria decumbens; bentazon solo 60 gai/ha): 0%
- pest or weed control at 240 g/ha (Brachiaria decumbens; bentazon solo 240 gai/ha): 20%

Structure (SMILES): CCCCCCCCSC(=O)Oc1cc(Cl)nnc1-c1ccccc1 [pyridate]
- pest or weed control at 900 g/ha (Alopecurus myosuroides; [5]): 20%
- inhibition at 112.5 g/ha (Alopecurus myosuroides; pyridate solo 112.5 gai/ha): 0%
- inhibition at 225 g/ha (Alopecurus myosuroides; pyridate solo 225 gai/ha): 0%
- inhibition at 450 g/ha (Alopecurus myosuroides; pyridate solo 450 gai/ha): 0%
- inhibition at 900 g/ha (Alopecurus myosuroides; pyridate solo 900 gai/ha): 20%
- pest or weed control at 112.5 g/ha (Papaver rhoeas; [6]): 0%
- pest or weed control at 225 g/ha (Papaver rhoeas; [7]): 10%
- pest or weed control at 450 g/ha (Papaver rhoeas; [8]): 50%
- pest or weed control at 900 g/ha (Papaver rhoeas; [5]): 70%
- inhibition at 112.5 g/ha (Papaver rhoeas; pyridate solo 112.5 gai/ha): 0%
- inhibition at 225 g/ha (Papaver rhoeas; pyridate solo 225 gai/ha): 10%
- inhibition at 450 g/ha (Papaver rhoeas; pyridate solo 450 gai/ha): 50%
- inhibition at 900 g/ha (Papaver rhoeas; pyridate solo 900 gai/ha): 70%
- pest or weed control at 112.5 g/ha (Avena fatua; [6]): 0%
- pest or weed control at 225 g/ha (Avena fatua; [7]): 0%
- pest or weed control at 450 g/ha (Avena fatua; [8]): 10%
- pest or weed control at 900 g/ha (Avena fatua; [5]): 30%
- inhibition at 112.5 g/ha (Avena fatua; pyridate solo 112.5 gai/ha): 0%
- inhibition at 225 g/ha (Avena fatua; pyridate solo 225 gai/ha): 0%
- inhibition at 450 g/ha (Avena fatua; pyridate solo 450 gai/ha): 10%
- pest or weed control at 112.5 g/ha (Matricaria chamomilla; [6]): 0%
- pest or weed control at 225 g/ha (Matricaria chamomilla; [7]): 0%
- pest or weed control at 450 g/ha (Matricaria chamomilla; [8]): 40%
- inhibition at 112.5 g/ha (Matricaria chamomilla; pyridate solo 112.5 gai/ha): 0%
- inhibition at 225 g/ha (Matricaria chamomilla; pyridate solo 225 gai/ha): 0%
- inhibition at 450 g/ha (Matricaria chamomilla; pyridate solo 450 gai/ha): 40%
- pest or weed control at 112.5 g/ha (Lolium multiflorum; [6]): 0%
- pest or weed control at 225 g/ha (Lolium multiflorum; [7]): 20%
- inhibition at 112.5 g/ha (Lolium multiflorum; pyridate solo 112.5 gai/ha): 0%
- inhibition at 225 g/ha (Lolium multiflorum; pyridate solo 225 gai/ha): 20%
- inhibition at 112.5 g/ha (Polygonum convolvulus; pyridate solo 112.5 gai/ha): 40%
- inhibition at 225 g/ha (Polygonum convolvulus; pyridate solo 225 gai/ha): 50%
- pest or weed control at 112.5 g/ha (Setaria viridis; [6]): 15%
- pest or weed control at 225 g/ha (Setaria viridis; [7]): 25%
- pest or weed control at 450 g/ha (Setaria viridis; [8]): 65%
- inhibition at 225 g/ha (Setaria viridis; pyridate solo 225 gai/ha): 25%
- inhibition at 450 g/ha (Setaria viridis; pyridate solo 450 gai/ha): 65%
- inhibition at 900 g/ha (Setaria viridis; pyridate solo 900 gai/ha): 80%
- inhibition at 225 g/ha (Echinocloa crus-galli; Echinochloa crus-galli, 480 h, pyridate solo 225 gai/ha): 30%
- pest or weed control at 112.5 g/ha (Bromus sterilis; [6]): 0%
- pest or weed control at 225 g/ha (Bromus sterilis; [7]): 0%
- pest or weed control at 900 g/ha (Bromus sterilis; [5]): 0%
- pest or weed control at 112.5 g/ha (Brachiaria decumbens; [6]): 0%
- pest or weed control at 225 g/ha (Brachiaria decumbens; [7]): 20%
- pest or weed control at 450 g/ha (Brachiaria decumbens; [8]): 20%
- pest or weed control at 900 g/ha (Brachiaria decumbens; [5]): 50%
- inhibition at 112.5 g/ha (Brachiaria decumbens; pyridate solo 112.5 gai/ha): 0%
- inhibition at 225 g/ha (Brachiaria decumbens; pyridate solo 225 gai/ha): 20%
- inhibition at 450 g/ha (Brachiaria decumbens; pyridate solo 450 gai/ha): 20%
- inhibition at 900 g/ha (Brachiaria decumbens; pyridate solo 900 gai/ha): 50%

Reference: patent publication US10966426B2, “Herbicidal compositions comprising phenylpyrimidines” (BASF SE, priority 2016, dated 2021)
